Patent publication US10681909B2, “Herbicidal triazoles” (FMC Corporation, priority 2014, dated 2020)

Tests used:
[1] = test system: bromegrass, down; assay: Test D postemergence; assay type: in vivo, Bromus tectorum; conditions: scale 0 to 100
Outline: (§1)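 In this greenhouse herbicide screen, the preemergence spray went onto freshly planted silt loam, and the postemergence spray went onto seedlings 2 to 18 cm high. The compounds were carried in a surfactant-containing solvent. Plants were visually evaluated against controls after 14–21 d; a dash denotes no test result.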

[2] = test system: oilseed rape; assay: Test D preemergence; assay type: in vivo, Brassica napus; conditions: scale 0 to 100
Outline: as §1

[3] = test system: bluegrass; assay: Test D postemergence; assay type: in vivo, Poa annua; conditions: scale 0 to 100
Outline: as §1

[4] = test system: pigweed; assay: Test D preemergence; assay type: in vivo, Amaranthus retroflexus; conditions: scale 0 to 100
Outline: as §1

[5] = test system: kochia; assay: Test D postemergence; assay type: in vivo, Kochia scoparia; conditions: scale 0 to 100
Outline: as §1

[6] = test system: crabgrass, large; assay: Test A postemergence; assay type: in vivo, Digitaria sanguinalis; conditions: Digitaria sanguinalis, post-emergence, 240 h, 0 to 100 scale (0 no effect, 100 complete control), approx. 10 d, read-out: Plant response rating, Crabgrass, Large
Outline: (§2)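 Pre- and postemergence spray tests in a loam soil–sand mixture: seeded soil received a directed spray, while established seedlings 2–10 cm high at the one- to two-leaf stage were treated over the top. Compounds were carried in non-phytotoxic solvent with surfactant.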

[7] = test system: morningglory; assay: Test A postemergence; assay type: in vivo, Ipomoea spp.; conditions: Ipomoea, post-emergence, 240 h, 0 to 100 scale (0 no effect, 100 complete control), approx. 10 d, read-out: Plant response rating, Morningglory
Outline: as §2

[8] = test system: buckwheat, wild; assay: Test D postemergence; assay type: in vivo, Polygonum convolvulus; conditions: scale 0 to 100
Outline: as §1

[9] = test system: field violet; assay: Test D postemergence; assay type: in vivo, Viola arvensis; conditions: scale 0 to 100
Outline: as §1

[10] = test system: oilseed rape; assay: Test D postemergence; assay type: in vivo, Brassica napus; conditions: scale 0 to 100
Outline: as §1

[11] = test system: blackgrass; assay: Test C preemergence; assay type: in vivo, Alopecurus myosuroides; conditions: for Plant response rating (scale of 0 to 100 where 0 is no effect and 100 is complete control): Blackgrass, preemergence; for Blackgrass plant response rating (0 to 100): Preemergence, visual rating after 13 to 15 d
Outline: (§3)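 Preemergence: seeds sown in loam soil–sand blend and treated with test chemicals formulated in a non-phytotoxic solvent mixture containing a surfactant. Postemergence: plants grown in peat moss/vermiculite-based medium and sprayed with the same formulation at 2 to 18 cm height (1- to 4-leaf stage).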

[12] = test system: buckwheat, wild; assay: Test D preemergence; assay type: in vivo, Polygonum convolvulus; conditions: scale 0 to 100
Outline: as §1

[13] = test system: waterhemp; assay: Test C preemergence; assay type: in vivo, Amaranthus rudis; conditions: for Waterhemp plant response rating (0 to 100): Preemergence, visual rating after 13 to 15 d
Outline: as §3

## CCOc1nc(-c2ccc(F)cc2)nn1Cc1ccnc(C(F)(F)F)c1 [Compound 8, 4-[[5-ethoxy-3-(4-fluorophenyl)-1H-1,2,4-triazol-1-yl]methyl]-2-(trifluoromethyl)pyridine]
[1]; 31 g ai/ha
  Plant response rating: Bromegrass, Down: 35
[1]; 62 g ai/ha
  Plant response rating: Bromegrass, Down: 45
[1]; 125 g ai/ha
  Plant response rating: Bromegrass, Down: 55
[1]; 250 g ai/ha
  Plant response rating: Bromegrass, Down: 60
[2]; 62 g ai/ha
  Plant response rating: Oilseed Rape: 60
[2]; 125 g ai/ha
  Plant response rating: Oilseed Rape: 100
[2]; 250 g ai/ha
  Plant response rating: Oilseed Rape: 100
[3]; 31 g ai/ha
  Plant response rating: Bluegrass: 55
[3]; 62 g ai/ha
  Plant response rating: Bluegrass: 65
[3]; 125 g ai/ha
  Plant response rating: Bluegrass: 75
[3]; 250 g ai/ha
  Plant response rating: Bluegrass: 75
[4]; 62 g ai/ha
  Plant response rating: Pigweed: 100
[4]; 125 g ai/ha
  Plant response rating: Pigweed: 100
[4]; 250 g ai/ha
  Plant response rating: Pigweed: 100
[5]; 31 g ai/ha
  Plant response rating: Kochia: 75
[5]; 62 g ai/ha
  Plant response rating: Kochia: 80
[5]; 125 g ai/ha
  Plant response rating: Kochia: 85
[5]; 250 g ai/ha
  Plant response rating: Kochia: 80
[6]; 125 g ai/ha
  pest or weed control at 125 g/ha: 100%
[6]; 500 g ai/ha
  pest or weed control at 500 g/ha: 100%
[7]; 125 g ai/ha
  pest or weed control at 125 g/ha: 90%
[7]; 500 g ai/ha
  pest or weed control at 500 g/ha: 100%
[8]; 31 g ai/ha
  Plant response rating: Buckwheat, Wild: 70
[8]; 62 g ai/ha
  Plant response rating: Buckwheat, Wild: 70
[8]; 125 g ai/ha
  Plant response rating: Buckwheat, Wild: 95
[8]; 250 g ai/ha
  Plant response rating: Buckwheat, Wild: 95
[9]; 31 g ai/ha
  Plant response rating: Field Violet: 70
[9]; 62 g ai/ha
  Plant response rating: Field Violet: 75
[9]; 125 g ai/ha
  Plant response rating: Field Violet: 90
[9]; 250 g ai/ha
  Plant response rating: Field Violet: 100
[10]; 31 g ai/ha
  Plant response rating: Oilseed Rape: 70
[10]; 62 g ai/ha
  Plant response rating: Oilseed Rape: 75
[10]; 125 g ai/ha
  Plant response rating: Oilseed Rape: 100
[10]; 250 g ai/ha
  Plant response rating: Oilseed Rape: 100
[11]; 125 g ai/ha
  Plant response rating (scale of 0 to 100 where 0 is no effect and 100 is complete control): 90
[11]; 250 g ai/ha
  Plant response rating (scale of 0 to 100 where 0 is no effect and 100 is complete control): 90
[11]; 31 g ai/ha
  Blackgrass plant response rating (0 to 100): 90
[11]; 62 g ai/ha
  Blackgrass plant response rating (0 to 100): 90
[12]; 31 g ai/ha
  Plant response rating: Buckwheat, Wild: 35
[12]; 62 g ai/ha
  Plant response rating: Buckwheat, Wild: 100
[12]; 125 g ai/ha
  Plant response rating: Buckwheat, Wild: 100
[12]; 250 g ai/ha
  Plant response rating: Buckwheat, Wild: 100
[13]; 31 g ai/ha
  Waterhemp plant response rating (0 to 100): 98
[13]; 62 g ai/ha
  Waterhemp plant response rating (0 to 100): 100
[13]; Waterhemp, preemergence, 250 g ai/ha
  Plant response rating (scale of 0 to 100 where 0 is no effect and 100 is complete control): 100
